Experimental data as given in paper PMC9570594, “Development of Novel Pyridine-Thiazole Hybrid Molecules as Potential Anticancer Agents” (Molecules, 2022).

Experiments:
HL-60(TB) (Leukemia) = assay: NCI five-dose SRB assay; type: cell-based; settings: Homo sapiens, 48 h
SR (Leukemia) = assay: NCI five-dose SRB assay; type: cell-based; settings: Homo sapiens, 48 h
[1] = tested on: A549/ATCC (Non-Small Cell Lung Cancer); assay: NCI five-dose SRB assay; type: cell-based; settings: Homo sapiens, 48 h
[2] = tested on: NCI-H23 (Non-Small Cell Lung Cancer); assay: NCI five-dose SRB assay; type: cell-based; settings: Homo sapiens, 48 h
[3] = tested on: NCI-H322M (Non-Small Cell Lung Cancer); assay: NCI five-dose SRB assay; type: cell-based; settings: Homo sapiens, 48 h
[4] = tested on: Colon Cancer cell lines (MG_MID); assay: NCI five-dose SRB assay; type: cell-based; settings: Homo sapiens, 48 h
SF-268 (CNS Cancer) = assay: NCI five-dose SRB assay; type: cell-based; settings: Homo sapiens, 48 h
SK-MEL-2 (Melanoma) = assay: NCI five-dose SRB assay; type: cell-based; settings: Homo sapiens, 48 h
SK-OV-3 (Ovarian Cancer) = assay: NCI five-dose SRB assay; type: cell-based; settings: Homo sapiens, 48 h
RXF 393 (Renal Cancer) = assay: NCI five-dose SRB assay; type: cell-based; settings: Homo sapiens, 48 h
MCF-7 cell line = assay: Time-dependent viability test (MTT); type: cell-based, human; settings: MCF-7, 10 µM
Experimental: A strong correlation was detected between the treatment time and an anti-proliferative potential. The cytotoxic effect of this compound develops after […] of incubation. This feature may explain the difference of cell viability compared with the NCI results which were obtained at 48th hour of incubation of cells with derivative 4. […] The result obtained at 48th hour of treatment of the MCF-7 cells with the compound 4 in concentration 10 µM correlates to some extent with data of the NCI screening. At that time point, 43% of the cells died.
Time-dependent viability data were obtained as a result of 24, 48, 72, and 124 h MTT tests performed on the MCF-7 cells treated with the compound 4 (10 μM).

MCF-7 cells [5] = assay: Clonogenic assay; type: cell-based, human; settings: 10 days
Experimental: This assay essentially tests every cell in the population for its ability to undergo “unlimited” division. […] At 1 µM concentration, it reduced the ability of the MCF-7 single cell to grow into a colony to 36%. […] With a concentration equivalent to 10 µM of the compound 4, the DMSO increased the cell’s ability to grow in colony.
MCF-7 cells were seeded in triplicate in 6-well plates (CytoONE, STARLAB International GmbH, Germany) at a density of 500 cells per well. After 24 h incubation, the compound 4 was added in 1 and 10 μM concentrations and cells were treated for 10 days. Colonies containing ≥ 50 cells were fixed with 50% (v/v) methanol in the PBS and stained with crystal violet (Sigma-Aldrich, Burlington, MA, USA). Stained colonies were counted and expressed as a fraction of the untreated control.

[6] = tested on: MCF-7 breast cancer cells; assay: Mitochondrial membrane potential, JC-1 (flow cytometry); type: cell-based, human; settings: MCF-7, 5 µM, 24 h, control 5.1 ± 0.7%
Experimental: A decrease in the mitochondrial membrane potential (MMP, ΔΨm) is one of the earliest changes observed at apoptosis. […] The MCF-7 cells had depolarized mitochondria, reaching 25.3 ± 1.5% and 24.7 ± 0.4% of the cell population treated with the compound 4 and 7, respectively. In the control, there were only 5.1 ± 0.7% cells with a decreased ΔΨm.
Disruption of the MMP was assessed using the lipophilic cationic probe 5,5,6,6-tetrachloro-1,1,3,3-tetraethylbenzimidazolcarbocyanine iodide (JC-1 MitoScreen kit; BD Biosciences San Diego, CA, USA), as described previously. The entire assay was performed according to the manufacturer’s instructions provided with the purchased kit. […] Briefly, unfixed MCF-7 cells were washed and resuspended in the PBS supplemented with the JC-1 dye. Then, cells were incubated for 15 min at room temperature (RT) in the dark, washed, and resuspended in the PBS for the immediate BD FACSCanto II flow cytometry analysis.

MCF-7 cells [7] = assay: PARP-1 inhibition in vitro: MTT after Fluzoparib pretreatment; type: cell-based, human; settings: Homo sapiens, MCF7; MCF-7, compound alone (no preincubation), 72 h MTT; read-out: IC50
Experimental: Taking into account the above data, PARP1 inhibition in vitro was investigated using pretreatment of the MCF-7 cells with the Fluzoparib, a potent PARP1 inhibitor in the non-toxic concentrations of 5, 10, and 15 µM. It had no significant growth inhibitory effect in such doses, and a reduction of cell viability by only 10–12% was observed compared to control (non-treated) cells. […] The preincubation step was used to bind PARP1 molecules, which were the potential targets of the studied compounds and to test if it would affect the activity of 3 and 4. […] The preincubation of cells with the Fluzoparib decreased their sensitivity to the compound 3 treatment in a less pronounced manner, compared with the effect of the compound 4. […] Changes in structure of the started compound 3 may cause an enhancement of the ability of molecule 4 to inhibit the activity of PARP1.
To determine PARP inactivation, the MCF-7 cells were pretreated for 2 h in the non-toxic concentrations of 5, 10, 15 µM of the Fluzoparib (Med Chem Express, Monmouth Junction, NJ, USA), a potent PARP1 inhibitor used in the chemotherapy. Then, the medium was removed and increasing doses of the compounds 3 and 4 were added and cells were incubated for the next 72 h. The IC50 values of compounds were determined by the MTT assay, as described.

MCF-7 cells [8] = assay: Chemical synthetic lethality: MTT after preincubation with MGMT inhibitor Lomeguatrib; type: cell-based, human; settings: for IC50: Homo sapiens, MCF7, 72 h MTT
[9] = tested on: NCI-H460 (Non-Small Cell Lung Cancer); assay: NCI one-dose SRB assay; settings: 10 μM, 48 h
Experimental: (§1) Tested compounds were added to the culture at a single concentration (10^−5 M) and the cultures were incubated for 48 h. End point determinations were made with a protein binding dye, Sulphorhodamine B (SRB). […] The percentage growth was evaluated spectrophotometrically versus controls not treated with test agents.

HCT-15 (Colon Cancer) = assay: NCI one-dose SRB assay; settings: 10 μM, 48 h
Experimental: as §1

SK-OV-3 (ovarian) = assay: MTT assay of cell viability; settings: Homo sapiens, SK-OV-3, 72 h
[10] = tested on: murine macrophages of J774.2 line; assay: MTT assay of cell viability; settings: Mus musculus, J774.2, 72 h
[11] = tested on: panel of cancer cell lines; assay: MTT assay, summary over the tumor cell lines; settings: Homo sapiens, 72 h, read-out: IC50 toward tumor cells (depending on tumor cell line)

## CCOC(=O)c1ccc(NC(=O)CSC(CC(=O)c2sc(Nc3ccccn3)nc2C)c2ccccc2F)cc1 (centres unmarked) [Compound 4, Ethyl 4-[[2-[1-(2-Fluorophenyl)-3-[4-methyl-2-(2-pyridylamino)thiazol-5-yl]-3-oxopropyl]sulfanylacetyl]amino]benzoate]
HL-60(TB) (Leukemia)
  GI50: 21.4 µM
SR (Leukemia)
  GI50: 24.1 µM
[1]
  GI50: 75.7 µM
[2]
  GI50: 22.7 µM
[3]
  GI50: 25.4 µM
[4]
  GI50: 51.6 µM
SF-268 (CNS Cancer)
  GI50: 43.1 µM
SK-MEL-2 (Melanoma)
  GI50: 44.9 µM
SK-OV-3 (Ovarian Cancer)
  GI50: 26 µM
RXF 393 (Renal Cancer)
  GI50: 2.59 µM
MCF-7 cell line; 24 h
  cells killed: 19.9%
MCF-7 cell line; 48 h
  cells died: 43%
MCF-7 cell line; 124 h
  cells died: 90%
MCF-7 cells [5]; MCF-7, 1 µM
  ability of single cell to grow into a colony (compared with control): 36%
MCF-7 cells [5]; MCF-7, 10 µM
  colony formation: No colony formation was observed
[6]
  cells with depolarized mitochondria (decreased ΔΨm): 25.3 ± 1.5%
MCF-7 cells [7]
  IC50: 3.53 µM
MCF-7 cells [8]; MCF-7, 3 h preincubation with Lomeguatrib, read-out: IC50 with the MGMT inhibitor
  IC50: 0.72 µM
MCF-7 cells [8]; MCF-7, compound alone, read-out: IC50
  IC50: 2.28 µM
MCF-7 cells [8]; MCF-7
  enhancement of sensitivity by Lomeguatrib preincubation: 3 times
MCF-7 cells [8]; MCF-7, compared with individual treatments
  combination effect with the MGMT inhibitor: synergistic activity
[9]
  Growth %: −40.69%
HCT-15 (Colon Cancer)
  Growth %: −42.04%
SK-OV-3 (ovarian)
  IC50: 7.87 ± 0.23 µM
[10]
  IC50: > 50 µM
[11]
  IC50: 0.57 to 7.8 µM
